Data: PubChem BioAssay (NCI)
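48-hour exposure; five concentrations; linearly interpolated endpoints. The concentration for 50% growth inhibition is given as GI50. TGI: concentration producing complete growth inhibition.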

Tests used:
Assay in all cases: growth of human tumour cells (NCI), 48 h
[1] = test system: 786-0 renal
[2] = test system: A498 renal
[3] = test system: A549 NSCLC
[4] = test system: ACHN renal
[5] = test system: BT-549 breast
[6] = test system: CAKI-1 renal
[7] = test system: CCRF-CEM leukemia
[8] = test system: COLO 205 colon
[9] = test system: DU-145 prostate
[10] = test system: EKVX NSCLC
[11] = test system: HCC-2998 colon
[12] = test system: HCT-116 colon
[13] = test system: HCT-15 colon
[14] = test system: HL-60(TB) leukemia
[15] = test system: HOP-62 NSCLC
[16] = test system: HOP-92 NSCLC
[17] = test system: HS 578T breast
[18] = test system: HT29 colon
[19] = test system: IGROV1 ovarian
[20] = test system: K-562 leukemia
[21] = test system: KM12 colon
[22] = test system: LOX IMVI melanoma
[23] = test system: M14 melanoma
[24] = test system: MALME-3M melanoma
[25] = test system: MCF7 breast
[26] = test system: MDA-MB-231 breast
[27] = test system: MDA-MB-435
[28] = test system: MDA-MB-468 breast
[29] = test system: MOLT-4 leukemia
[30] = test system: NCI-H226 lung
[31] = test system: NCI-H23 lung
[32] = test system: NCI-H460 lung
[33] = test system: NCI-H522 lung
[34] = test system: NCI/ADR-RES ovarian
[35] = test system: OVCAR-3 ovarian
[36] = test system: OVCAR-4 ovarian
[37] = test system: OVCAR-5 ovarian
[38] = test system: OVCAR-8 ovarian
[39] = test system: PC-3 prostate
[40] = test system: RPMI-8226 leukemia
[41] = test system: RXF 393 renal
[42] = test system: SF-268 CNS
[43] = test system: SF-295 CNS
[44] = test system: SF-539 CNS
[45] = test system: SK-MEL-2 melanoma
[46] = test system: SK-MEL-28 melanoma
[47] = test system: SK-MEL-5 melanoma
[48] = test system: SK-OV-3 ovarian
[49] = test system: SN12C renal
[50] = test system: SNB-19 CNS
[51] = test system: SNB-75 CNS
[52] = test system: SR leukemia
[53] = test system: SW-620 colon
[54] = test system: T-47D breast
[55] = test system: TK-10 renal
[56] = test system: U251 CNS
[57] = test system: UACC-257 melanoma
[58] = test system: UACC-62 melanoma
[59] = test system: UO-31 renal

SMILES: COc1ccc2ncc(C#Cc3cncc(C(=O)Nc4ccc(CN5CCN(C)CC5)c(C(F)(F)F)c4)c3)n2n1
- GI50 [1]: 3.53 µM
- TGI [1]: 15.6 µM
- GI50 [2]: 14.2 µM
- TGI [2]: > 37.7 µM
- GI50 [3]: 1.27 µM
- TGI [3]: 17.7 µM
- GI50 [4]: 1.39 µM
- TGI [4]: > 28.4 µM
- GI50 [5]: 1.47 µM
- TGI [5]: 9.85 µM
- GI50 [6]: 1.08 µM
- TGI [6]: 10.5 µM
- GI50 [7]: 0.203 µM
- TGI [7]: > 72 µM
- GI50 [8]: 0.265 µM
- TGI [8]: 2.34 µM
- GI50 [9]: 2.19 µM
- TGI [9]: 13.4 µM
- GI50 [10]: 1.22 µM
- TGI [10]: 13.3 µM
- GI50 [11]: 4.16 µM
- TGI [11]: 14.4 µM
- GI50 [12]: 0.244 µM
- TGI [12]: 5.55 µM
- GI50 [13]: 0.496 µM
- TGI [13]: 9.8 µM
- GI50 [14]: 0.31 µM
- TGI [14]: 4.25 µM
- GI50 [15]: 1.16 µM
- TGI [15]: 16.6 µM
- GI50 [16]: 0.238 µM
- TGI [16]: 2.9 µM
- GI50 [17]: 0.398 µM
- TGI [17]: 6.06 µM
- GI50 [18]: 0.444 µM
- TGI [18]: 9.45 µM
- GI50 [19]: 3.81 µM
- TGI [19]: > 30.2 µM
- GI50 [20]: 0.0072 µM
- TGI [20]: 1.11 µM
- GI50 [21]: 0.0072 µM
- TGI [21]: 9.17 µM
- GI50 [22]: 0.877 µM
- TGI [22]: 4.26 µM
- GI50 [23]: 0.569 µM
- TGI [23]: 3.12 µM
- GI50 [24]: 0.384 µM
- TGI [24]: 3.32 µM
- GI50 [25]: 0.295 µM
- TGI [25]: 3.68 µM
- GI50 [26]: 0.61 µM
- TGI [26]: 6.53 µM
- GI50 [27]: 0.54 µM
- TGI [27]: 13.3 µM
- GI50 [28]: 1.66 µM
- TGI [28]: 13 µM
- GI50 [29]: 0.356 µM
- TGI [29]: 4.07 µM
- GI50 [30]: 0.147 µM
- TGI [30]: 2.3 µM
- GI50 [31]: 0.629 µM
- TGI [31]: 10.3 µM
- GI50 [32]: 0.496 µM
- TGI [32]: 13.1 µM
- GI50 [33]: 1.84 µM
- TGI [33]: 14.1 µM
- GI50 [34]: 2.23 µM
- TGI [34]: 9.34 µM
- GI50 [35]: 6.35 µM
- TGI [35]: > 39.7 µM
- GI50 [36]: 3.89 µM
- TGI [36]: 18.3 µM
- GI50 [37]: 0.838 µM
- TGI [37]: 9.91 µM
- GI50 [38]: 4.26 µM
- TGI [38]: 18.2 µM
- GI50 [39]: 3.76 µM
- TGI [39]: 19.9 µM
- GI50 [40]: 1.39 µM
- TGI [40]: > 72 µM
- GI50 [41]: 1.31 µM
- TGI [41]: 8.63 µM
- GI50 [42]: 2.83 µM
- TGI [42]: 18.5 µM
- GI50 [43]: 0.986 µM
- TGI [43]: 15.5 µM
- GI50 [44]: 0.196 µM
- TGI [44]: 1.13 µM
- GI50 [45]: 1.29 µM
- TGI [45]: 6.54 µM
- GI50 [46]: 2.59 µM
- TGI [46]: 5.8 µM
- GI50 [47]: 4.78 µM
- TGI [47]: 14.9 µM
- GI50 [48]: 5.68 µM
- TGI [48]: 20 µM
- GI50 [49]: 1.37 µM
- TGI [49]: 8.03 µM
- GI50 [50]: 9.94 µM
- TGI [50]: 21.5 µM
- GI50 [51]: 5.91 µM
- TGI [51]: 15.9 µM
- GI50 [52]: 0.549 µM
- TGI [52]: > 30.5 µM
- GI50 [53]: 0.27 µM
- TGI [53]: 7.6 µM
- GI50 [54]: > 72 µM
- TGI [54]: > 72 µM
- GI50 [55]: 6.03 µM
- TGI [55]: 15.6 µM
- GI50 [56]: 9.62 µM
- TGI [56]: 23.2 µM
- GI50 [57]: 3.8 µM
- TGI [57]: 16.7 µM
- GI50 [58]: 8.37 µM
- TGI [58]: 18.2 µM
- GI50 [59]: 3.23 µM
- TGI [59]: 12.8 µM
